Experimental findings from US5972680A, “Glucose transporter vesicle aminopeptidase” (Bayer Corporation, priority 1995, dated 1999) are described below.

Assay [1] deals with T1, GTVap (Rattus norvegicus, UniProt P97629).
T1 construct: the GTVaps were solubilized from GLUT4 vesicles, LDM, HDM, and PM using 0.1% Triton X-100; from tissue; host or cells: adipocytes of epididymal fat pads of Sprague-Dawley rats, HDM fraction (Triton X-100 extract)
T1 sequence (P97629 1-1025): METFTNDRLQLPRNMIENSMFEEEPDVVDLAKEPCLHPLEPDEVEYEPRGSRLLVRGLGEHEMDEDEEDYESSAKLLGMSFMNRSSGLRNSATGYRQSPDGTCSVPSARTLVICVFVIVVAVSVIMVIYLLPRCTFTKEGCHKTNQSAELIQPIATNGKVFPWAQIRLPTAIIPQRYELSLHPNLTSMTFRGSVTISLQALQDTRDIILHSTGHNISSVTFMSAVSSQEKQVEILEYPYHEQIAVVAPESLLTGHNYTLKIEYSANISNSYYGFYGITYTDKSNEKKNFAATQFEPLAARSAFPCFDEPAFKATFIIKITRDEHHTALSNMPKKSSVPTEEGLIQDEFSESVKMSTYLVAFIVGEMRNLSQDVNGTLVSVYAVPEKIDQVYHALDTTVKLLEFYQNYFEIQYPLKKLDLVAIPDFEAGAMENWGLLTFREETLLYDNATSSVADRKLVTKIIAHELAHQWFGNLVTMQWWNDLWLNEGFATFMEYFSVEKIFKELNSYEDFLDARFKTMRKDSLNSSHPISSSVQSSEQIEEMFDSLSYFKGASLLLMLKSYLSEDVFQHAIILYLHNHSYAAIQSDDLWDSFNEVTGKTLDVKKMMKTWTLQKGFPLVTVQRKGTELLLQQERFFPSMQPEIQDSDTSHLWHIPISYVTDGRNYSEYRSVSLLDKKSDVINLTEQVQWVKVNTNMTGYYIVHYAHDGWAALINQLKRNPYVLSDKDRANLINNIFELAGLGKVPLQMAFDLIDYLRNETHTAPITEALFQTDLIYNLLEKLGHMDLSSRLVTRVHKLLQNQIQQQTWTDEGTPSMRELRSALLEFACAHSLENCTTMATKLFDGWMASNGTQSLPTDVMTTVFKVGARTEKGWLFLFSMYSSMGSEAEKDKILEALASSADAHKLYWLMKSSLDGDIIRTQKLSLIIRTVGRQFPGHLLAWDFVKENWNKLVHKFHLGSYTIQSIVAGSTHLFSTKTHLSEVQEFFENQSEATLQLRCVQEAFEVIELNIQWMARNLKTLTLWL
Put plainly: GTVap inhibition by protease and aminopeptidase inhibitors, leu-p-nitroanilide substrate, HDM extract. The settings on record: for IC50: HDM enzyme extract, inhibitor added 15 minutes prior to leu-p-nitroanilide substrate. It is filed as biochemical.

In assay [2] the target is T1, GTVap. Description: Ion stabilization of GTVap activity over time at 4° C. It is filed as biochemical. The note with it: HDM extract in 20 mM Tris-HCl pH 7.5 at 4° C.
Assay [3] has as its target T1, GTVap. Description: Effect of ions on GTVap activity, Triton X-100 extracts of HDM. Format: biochemical.
Assay [4] has as its target T2, GLUT4 vesicle GTVap (Rattus norvegicus, UniProt P97629).
T2 construct: a GLUT4 vesicle extract was prepared as described above and incubated with each substrate; from tissue; host or cells: GLUT4 vesicles immunopurified from the LDM fraction of rat epididymal adipocytes
T2 sequence (P97629 1-1025): T1 sequence (P97629 1-1025)
Put plainly: Relative activity of GLUT4 vesicle GTVap with amino acid β-napthylamide substrates. It is filed as biochemical. The note with it: GLUT4 vesicle extract; substrate 200 uM. As for the experimental part: Unless otherwise indicated, the GTVaps were solubilized from GLUT4 vesicles, LDM, HDM, and PM using 0.1% Triton X-100 in 20 mM Tris, pH 7.5 at 4° C. for 15 minutes. The insoluble material was pelleted at 20,000×g for 20 minutes and discarded. […] The results are reported as pmoles p-nitroanilide produced per μg protein/hour at 37° C. unless otherwise noted.
To characterize the relative reactivities of GTVap to different amino acid β-napthylamide substrates, a GLUT4 vesicle extract was prepared as described above and incubated with each substrate at a concentration of 200 uM as described above.

The target in assay [5] is T1, GTVap. Description: Relative activity of GTVap with amino acid p-nitroanilide substrates, HDM extract. It is filed as biochemical. The settings on record: substrate 1.6 mM, 37° C. How it is done: The […] can be maximally extracted (>95%) from the LDM, HDM, and PM membranous compartments using low concentrations of detergents. Unless otherwise indicated, the […] were solubilized from GLUT4 vesicles, LDM, HDM, and PM using 0.1% Triton X-100 in 20 mM Tris, pH 7.5 at 4° C. for 15 minutes. The insoluble material was pelleted at 20,000×g for 20 minutes and discarded. […] The UV absorbance of the p-nitroanilide product was measured at 405 nm and quantified by comparison to p-nitroanilide standards. The results are reported as pmoles p-nitroanilide produced per μg protein/hour at 37° C. unless otherwise noted. Alternatively, the results are presented as change in OD at 405 nm if the protein was too low to determine (eg column fractions) or a relative comparison was being made. […] To characterize the relative reactivities of GTVap to different amino acid p-nitroanilide substrates, an HDM extract was prepared as described above and incubated with each substrate at a concentration of 1.6 mM as described above.

Assay [6] concerns the target T1, GTVap. Put plainly: GTVap cleavage of insulin by HDM, mass spectrometry. It is filed as biochemical. The settings on record: HDM 1.8 mg/ml, 120 μg/ml porcine insulin, 37° C., pH 7.5. As for the experimental part:
HDM (1.8 mg/ml) was incubated at 37° C. with 120 μg/ml porcine insulin in 50 mM sodium borate, pH 7.5, containing the following protease inhibitors that were previously shown to have no inhibitory effect on GTVap: 2 mM benzamidine, 2 μM leupeptin, 1 μM pepstatin, 1 mM DFP, and 150 μM PMSF. The reaction was terminated after various incubation times by centrifugation of aliquots at 200,000×g to remove the HDM. The insulin products were detected by mass spectrometry or were first chromatographed on a 2.1×15 cm Beckman Spherisorb C18 column at 0.25 ml/min. in a 4 hour linear gradient of 27% to 31% acetonitrile in 1% TFA adjusted to pH 3.0 with TEA, prior to mass spectroscopic analysis.

The test system of assay [7] is GTVap. Description: Insulin-stimulated translocation of GTVap to the plasma membrane in rat adipocytes. Format: cell-based. The note with it: insulin 10 nM, 20 minutes at 37° C. As for the experimental part:
Epididymal fat pads from 125 g Sprague-Dawley rats were removed and immediately placed in KRBH buffer containing 1% BSA, 2.5 mM glucose and 200 nM adenosine. The fat was minced, collagenase was added to 3 mg/ml, and the mixture was incubated at 37° C. for 45 minutes with shaking. The dissociated adipocytes were filtered through a 250 micron nylon screen and washed 3 times (using mild centrifugation) with KRBH containing 1% BSA and 200 nM adenosine. The cells were resuspended in the wash buffer containing 3% BSA.
The membrane fractions PM, HDM and LDM were prepared generally according to Simpson et. al., Biochimica et Biophysica Acta, 763, 393-407 (1983). Isolated adipocytes were homogenized in a chilled Wheaton 55 ml teflon pestle homogenizer for ten strokes. The fat layer was removed following a 10,000×g centrifugation and the remaining material was rehomogenized. The PM fraction was pelleted at 16,000×g and the supernatant was recentrifuged to remove any additional PM. […]
GLUT4 is known to translocate from an intracellular vesicular compartment to the plasma membrane upon insulin stimulation. […] The insulin stimulated and control adipocytes were fractionated into the subcellular compartments and analyzed for GTVap enzyme and protein (Western blot) as previously described.

For assay [8], the target named is GTVap (Glucose Transporter Vesicle aminopeptidase) as present in rat adipocyte HDM and HDM extracts (rat). Put plainly: batch adsorption of solubilised HDM extract on wheat germ lectin-Sepharose.
Setting [9] is: incubated 15 minutes at 37° C. before leu-p-nitroanilide.

Read-outs that look alike come from different tables or passages of the source. Where a SMILES comes first, the peptide text is derived from it. The star is where a group is joined. CH2Cl = ClC*

Consider `O[C@H](CS)[C@H](O)CS` (racemic) [Dithiothreitol], for which the activation at 200 µM in assay [1] (at 0.2 mM, read-out: increase of enzyme activity) was determined as 20%. Further, 5000 µM produced 30% inhibition in assay [1] (at 5 mM).

As to `[Ca]` [Calcium], the “stabilization of GTVap activity against time dependent inactivation” value (“stabilization of GTVap activity” for short) in assay [2] is given as “stabilizes the enzyme activity”. The “effect of ion on GTVap enzyme activity” value in assay [3] (setting [9]) is “partially activate, but at high μmolar to mmolar ion concentrations”.

Take `CC(C)C[C@H](NC(=O)[C@@H](N)CC(C)C)C(=O)N[C@@H](Cc1ccccc1)C(=O)CCl` [Leu-Leu-Phe-chloromethyl ketone] (H-Leu-Leu-Phe-CH2Cl): the half-inhibitory concentration (IC50) (usually the point on the concentration scale where inhibition reaches its midpoint) in assay [1] was 1 mM.

For `O=S(=O)(F)Cc1ccccc1` [PMSF, phenylmethylsulfonyl fluoride], in assay [1], the “effect on GTVap activity” value is on record as “no effect”.

On to `[Zn+2]` [Zinc], for which the “stabilization of GTVap activity” value in assay [2] was “do not stabilize the enzyme”. In addition, the “effect of ion on GTVap enzyme activity” value in assay [3] (setting [9]) is “optimally activate at μmolar concentrations and inhibit at mmolar concentrations”.

`CCCCC[C@H](CC(=O)NO)C(=O)N[C@H](C(=O)N1CCC[C@H]1CO)C(C)C` [actinonin, Actinonin]: the IC50 in assay [1] is above 1 mM.

As to `N=C(N)NCCCC(N)C(=O)Nc1ccc2ccccc2c1` (stereo not drawn) [arginine β-napthylamide], in assay [4], the “activity of GLUT4 vesicle GTVap with amino acid-β-napthylamide substrate” value (shortened to “activity of GLUT4 vesicle GTVap”) stood at 6.5 nmoles/25 uL extract/hr.

As for `N=C(N)c1ccccc1` [benzamidine, Benzamidine], in assay [1], the “effect on GTVap activity” value was “no effect”.

Regarding `[Co+2]` [cobalt], in assay [2], the “stabilization of GTVap activity” value is listed as “do not stabilize the enzyme”. Besides, the “effect of ion on GTVap enzyme activity” value in assay [3] (setting [9]) is “optimally activate at μmolar concentrations and inhibit at mmolar concentrations”.

For `c1ccc(-c2ccccn2)nc1` [dipyridyl], the “inhibition of GTVap activity” value in assay [1] is above 98%.

As to `NCC(=O)Nc1ccc([N+](=O)[O-])cc1` [glycine p-nitroanilide], the “activity of GTVap with amino acid-p-nitroanilide substrate” value in assay [5] is recorded as 0.08 nmoles/μg protein/hr.

For `CC(=O)N[C@@H](CC(C)C)C(=O)N[C@@H](CC(C)C)C(=O)N[C@H](C=O)CCCNC(=N)N` [leupeptin, Leupeptin], in assay [1], the “effect on GTVap activity” value is on record as “no effect”.

On to `CC(C)C[C@H](N)CS` [leuthiol, L-leucinethiol], for which the IC50 in assay [1] was determined as 0.002 mM.

Consider `[Mg]` [magnesium], for which, in assay [3] (setting [9]), the “effect of ion on GTVap enzyme activity” value is “partially activate, but at high μmolar to mmolar ion concentrations”.

Take `[Mn+2]` [manganese]: the “stabilization of GTVap activity” value in assay [2] is listed as “do not stabilize the enzyme”. Besides, the “effect of ion on GTVap enzyme activity” value in assay [3] (setting [9]) was “optimally activate at μmolar concentrations and inhibit at mmolar concentrations”.

Take `CSCCC(N)C(=O)Nc1ccc2ccccc2c1` (stereo not drawn) [methionine β-napthylamide]: the “activity of GLUT4 vesicle GTVap” value in assay [4] is recorded as 2.9 nmoles/25 uL extract/hr.

For the molecule `c1cnc2c(c1)ccc1cccnc12` [phenanthroline], the “inhibition of GTVap activity” value in assay [1] (at >0.2 mM, relative to inhibitor-free control) is reported as above 98%.

For the molecule `NC(Cc1ccccc1)C(=O)Nc1ccc2ccccc2c1` (stereo not drawn) [phenylalanine β-napthylamide], the “activity of GLUT4 vesicle GTVap” value in assay [4] was 0.9 nmoles/25 uL extract/hr.

As to `[K+]` [potassium], the “effect of ion on GTVap enzyme activity” value in assay [3] (between 1 μM and 10 mM) is “no effect”.

As to `O=C(Nc1ccc([N+](=O)[O-])cc1)[C@@H]1CCCN1` [proline p-nitroanilide], in assay [5], the “activity of GTVap with amino acid-p-nitroanilide substrate” value is listed as 0.35 nmoles/μg protein/hr.

Regarding `CC(C)[C@H](N)C(=O)Nc1ccc([N+](=O)[O-])cc1` [valine p-nitroanilide], the “activity of GTVap with amino acid-p-nitroanilide substrate” value in assay [5] was 0.09 nmoles/μg protein/hr.

Turning to “insulin: Insulin (porcine) obtained from Eli Lilly”, the “cleavage of insulin by GTVap (mass spectroscopic analysis)” value in assay [6] was “N-terminal residues phenylalanine and valine of the B-subunit of insulin were removed sequentially”. Moreover, in assay [7], the “GTVap translocation (Western blot reactivity)” value is listed as “translocates to the plasma membrane” and the “increase of GTVap enzyme activity in the plasma membrane” value was 29%.

Regarding lithium, in assay [3] (between 1 μM and 10 mM), the “effect of ion on GTVap enzyme activity” value is “no effect”.

In turn, “wheat germ lectin-Sepharose 6 MB (tool reagent)” had a percent of total aminopeptidase activity bound in assay [8] of 93%.
